Test systems include BT-549 breast; HOP-92 NSCLC; T-47D breast; SK-MEL-5 melanoma; MCF7 breast; HCC-2998 colon; SK-MEL-28 melanoma; SF-268 CNS.
Holding throughout (experiment): NCI-60 cell line screen, 48 h

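Cultured in 96-well plates, cells were exposed to test compound for 48 hours across five concentrations. Definition used: TGI = concentration required for complete inhibition of growth.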

On to `COC1=CC(=O)c2nc3ccccc3c3ccnc1c23`, for which the TGI was 29.6 µM in the assay on BT-549 breast; 48 µM in the assay on HOP-92 NSCLC; above 100 µM in the assay on T-47D breast; 2.82 µM with SK-MEL-5 melanoma; 15.2 µM in the assay with MCF7 breast; 11.8 µM with HCC-2998 colon. In addition, the TGI in the assay on SK-MEL-28 melanoma is 41.5 µM; with SF-268 CNS it was above 44.2 µM.
Consider `CCN(CC)c1ccc2cc(C(N)=O)c(=Nc3ccc(F)cc3)oc2c1`, for which the TGI in the assay with BT-549 breast, in the assay with HOP-92 NSCLC, in the assay with T-47D breast, in the assay on SK-MEL-5 melanoma, with MCF7 breast and in the assay on HCC-2998 colon was above 100 µM each time. Moreover, the TGI in the assay on SK-MEL-28 melanoma and in the assay with SF-268 CNS was above 100 µM each time.
Regarding `COC12C=CC(CC1)C(C)(C)C2OS(C)(=O)=O` (stereo unspecified), the TGI in the assay with BT-549 breast, in the assay on HOP-92 NSCLC, in the assay on T-47D breast, with SK-MEL-5 melanoma, in the assay with MCF7 breast and in the assay on HCC-2998 colon was above 100 µM in each case. The TGI in the assay with SK-MEL-28 melanoma and in the assay on SF-268 CNS was above 100 µM in each case.
In the case of `CC(=O)OCC1OC(n2c(N)c(C#N)c(-c3cccc(Cl)c3)c(C#N)c2=S)C(OC(C)=O)C(OC(C)=O)C1OC(C)=O` (stereo unspecified), the TGI in the assay on BT-549 breast was 70.8 µM; in the assay on HOP-92 NSCLC, above 100 µM; with T-47D breast, 59 µM; with SK-MEL-5 melanoma, 30.3 µM; in the assay with MCF7 breast, above 100 µM; with HCC-2998 colon, 22.7 µM. Besides, the TGI is above 100 µM with SK-MEL-28 melanoma and 39.4 µM in the assay with SF-268 CNS.
As to `O=C(N[C@H]1CCC[C@H]1C(=O)Nc1ccc(C(F)(F)F)cc1)OCc1ccccc1`, the TGI in the assay with BT-549 breast, in the assay on HOP-92 NSCLC, in the assay with T-47D breast, with SK-MEL-5 melanoma, with MCF7 breast and in the assay on HCC-2998 colon was above 100 µM in each case. Moreover, the TGI in the assay on SK-MEL-28 melanoma and in the assay on SF-268 CNS was above 100 µM throughout.
Turning to `O=C(/C=C/c1ccccc1)Oc1cccc(Br)c1`, the TGI in the assay on BT-549 breast is above 100 µM; with HOP-92 NSCLC it was above 100 µM; in the assay with T-47D breast it was above 100 µM; in the assay on SK-MEL-5 melanoma, above 100 µM; in the assay on MCF7 breast, 47.4 µM; in the assay with HCC-2998 colon it was above 100 µM. Besides, the TGI in the assay on SK-MEL-28 melanoma and in the assay on SF-268 CNS was above 100 µM in each case.
`COc1cc([C@@H]2c3cc4c(cc3[C@@H](c3c(O)cc(O)c5c3O[C@H](c3ccc(O)c(O)c3)[C@H](OC(=O)c3cc(O)c(O)c(O)c3)C5)[C@H]3COC(=O)[C@H]23)OCO4)cc(OC)c1O`: the TGI was above 100 µM in the assay with BT-549 breast; above 100 µM in the assay on HOP-92 NSCLC; above 100 µM with T-47D breast; 78.4 µM in the assay with SK-MEL-5 melanoma; above 100 µM in the assay on MCF7 breast; 92.3 µM in the assay with HCC-2998 colon. In addition, the TGI in the assay on SK-MEL-28 melanoma and with SF-268 CNS was above 100 µM throughout.

Source of the values: PubChem BioAssay (NCI).
